Reference: patent US5736523A, “Antineoplastic heteronapthoquinones” (Biochem Pharma Inc., priority 1995, dated 1998)
Where two headings read alike, the source gives them in different places.

Key:
Format in all cases: cell-based, human
[1] = tested on: T47D (Ductal carcinoma of breast); test: In vitro cytotoxicity, microculture tetrazolium (MTT) assay, T47D
Description: (§1) In Vitro Cytotoxicity--Microculture Tetrazolium Assay
(§2) The microculture tetrazolium assay was used to test in vitro cytotoxicity. This assay is described in Plumb, J. A. et al., 1989 Cancer Research 49, 4435-4440, which is herein incorporated by reference. The cytotoxicity of compounds towards tumor cells is measured in vitro using the assay. This assay method is based upon the ability of live, but not dead cells to reduce the yellow water soluble dye 3-(4;5-dimethylthiazol-2-yl)-2,5-diphenyltetrazolium bromide (MTT) to its water insoluble purple formazan product.
(§3) Human Tumor Cell lines, used were:
T47D (Ductal carcinoma of breast)--ATCC catalog #HTB-133.
(§4) The cells were maintained in exponential growth in culture in minimal essential media (MEM) supplemented with non-essential amino acids, and containing 15% (v/v) fetal bovine serum, 5 mM L-glutamine, 1 mM sodium pyruvate, and 0.1 U/ml insulin. All cell lines were grown at 37° C. in an atmosphere of 5% CO2 in air.
(§5) Test compounds: 20 mM in DMSO and diluted to a final concentration of 200 μM in culture medium before use.
(§6) The following is the generic description of the assay method. It should be noted that although the conditions described work well with the cells listed above, the initial plating density and the MTT concentration used should be verified for each new cell line used to test compounds.
(§7) For each assay, doxorubicin is included as an inter-assay standard. This allows us to monitor the behaviour of the assay in general, and in particular, to check that the SKVLB line has maintained its resistant phenotype.
(§8) The plate layout is done in the following manner: The assays are carried out in 96-well (8 well×12 well) microtiter plates. Serial dilutions of the compound are tested along the length of the plate. A 1:3 serial dilution of compound in culture medium covers a concentration range from 100 μM to 1.7 nM. Each concentration of compound is tested in quadruplet, allowing two compounds to be tested per plate. Wells containing no cells (blank) and cells with no test compound (control) are included on each plate.
(§9) Cells are plated out in 100 μl of culture medium in the microtiter plates at a density of around 1,500-4,000 cells per well. The plates are incubated overnight to allow the cells to become adherent after which the test compound is added (100 μl of appropriate dilution per well). The cells are incubated with test compound at 37° C. for 48 h after which the compound is replaced with fresh medium. After a further 48 h incubation at 37° C., 50 μl of MTT solution (2 mg/ml) is added to each well. The plates are incubated in the dark for 4 h at 37° C. after which the medium is removed. The MTT formazan product is extracted from the cells by the addition of 200 μl DMSO followed by 50 μl of Sorensen's buffer. The plates are shaken briefly and the absorbance at 570 nm is read using a Molecular Devices UV max plate reader. Curves are fit to the MTT assay data using a four parameter logistic equation, and the data are normalized to fit a 0% to 100% survival scale.

[2] = tested on: SKVLB (Ovarian; multidrug resistant); test: In vitro cytotoxicity, microculture tetrazolium (MTT) assay, SKVLB; details: for VLB/OV3: ratio SKVLB / SKOV3
Description: as §1, §2, §3
SKVLB (Ovarian; multidrug resistant)--Dr. V. Ling, Ontario
as §4, §5, §6, §7, §8, §9

[3] = tested on: HT 29 (Colon adenocarcinoma); test: In vitro cytotoxicity, microculture tetrazolium (MTT) assay, HT 29
Description: as §1, §2, §3
HT 29 (Colon adenocarcinoma) ATCC catalog #HTB-38.
as §4, §5, §6, §7, §8, §9

[4] = tested on: SKOV3 (Ovarian adenocarcinoma); test: In vitro cytotoxicity, microculture tetrazolium (MTT) assay, SKOV3
Description: as §1, §2, §3
SKOV3 (Ovarian adenocarcinoma)--provided by Dr. V. Ling,
as §4, §5, §6, §7, §8, §9

Lox (Melanoma) = test: In vitro cytotoxicity, microculture tetrazolium (MTT) assay, Lox
Description: as §1, §2, §3
Lox (Melanoma)--Southern Research Institute.
as §4, §5, §6, §7, §8, §9

[5] = SKVLB, multidrug resistant, read-out: IC50
[6] = Homo sapiens, HT-29, HT29, read-out: IC50

`CC(=O)O[C@@H]1[C@H](C)O[C@@H](OC2OC(C(C)=O)CC3=C2C(=O)c2ccccc2C3=O)C[C@@H]1OC(C)=O` (mixture of isomers) [BCH2118, (1'S,1S,3R) and (1'S,1R,3S)-methyl-(1-[dideoxy-2',6'-diacetoxy-3',4'-L-lyxohexopyranose]-5,10-dioxo-3,4,5,10-tetrahydronaphtho-[2,3-c]-pyran-3-yl) ketone] gave an IC50 ([1]; read-out: IC50) of 244 nM, an IC50 [2, 5] of 0.79 µM and a VLB/OV3 [2] of 6.68. The IC50 ([3]; HT29, read-out: IC50) was 203 nM and the IC50 ([4]; SKOV3, read-out: IC50) was 120 nM.
`CC(=O)C1CC2=C(C(=O)c3ccccc3C2=O)C(OCC2CCN(C(=O)OC(C)(C)C)CC2)O1.Cl` (racemic) [BCH2068, Methyl-(1-O-[N-BOC-4-piperidinemethanol]-5,10-dioxo-3,4,5,10-tetrahydronaphthaleno-[2,3-c]pyran-3-yl) ketone, racemic, hydrochloride] was tested, and the IC50 ([1]; read-out: IC50) was 422 nM, the IC50 [2, 5] was 1.2 µM and the VLB/OV3 [2] was 1. The IC50 (Lox (Melanoma); read-out: IC50) was 1300 nM and the IC50 ([3]; HT29, read-out: IC50) was 130 nM.
In the case of `CC[C@H]1CC2=C(C(=O)c3ccccc3C2=O)[C@H](NC(C)=O)O1` (relative stereo) [BCH2027, Trans-5,10-dioxo-1-acetamido-3-ethyl-3,4,5,10-tetrahydro-1H-naphtho-[2,3-c]-pyran], the IC50 ([1]; Homo sapiens) is reported as 23300 nM, the VLB/OV3 [2] is reported as 4.02 and the IC50 (Lox (Melanoma); Homo sapiens) is reported as 3040 nM.
Work on `C=C(C)[C@H]1CC2=C(C(=O)c3ccccc3C2=O)[C@H](OC)O1` (relative stereo) [BCH2148, (trans)-5,10-dioxo-3-isopropenyl-1-methoxy-3,4,5,10-tetrahydro-1H-naphtho-[2,3-c]-pyran] yielded a VLB/OV3 [2] of 0.79 and an IC50 (Lox (Melanoma); Homo sapiens) of 1550 nM.
Work on `COc1cccc2c1C(=O)c1c(O)c3c(c(O)c1C2=O)C[C@@](O)(C(=O)CO)C[C@@H]3O[C@H]1C[C@H](N)[C@H](O)[C@H](C)O1` [Adriamycin, reference compound] yielded an IC50 ([1]; Homo sapiens) of 70 nM, an IC50 (Lox (Melanoma); Homo sapiens) of 34 nM and an IC50 ([3]; Homo sapiens, HT-29) of 90 nM. The IC50 ([4]; Homo sapiens, SK-OV-3) was 12 nM.
For `CC(=O)C1CC2=C(C(=O)c3ccccc3C2=O)C(O)O1` (stereo not shown) [BCH1148, Methyl (1-hydroxy-5,10-dioxo-3,4,5,10-tetrahydronaphtho [2,3-C]pyran-3-yl) ketone], the IC50 [3, 6] was over 10000 nM.
In the case of `COP(=O)(CC(=O)[C@@H]1CC2=C(C(=O)c3ccccc3C2=O)[C@@H](O[C@H]2C[C@H](NC(=O)C(F)(F)F)[C@H](O)[C@H](C)O2)O1)OC` [BCH1689, (1'S,1R,3S)-1-(2',3',6'-trideoxy-3'-trifluoroacetamido-L-lyxohexopyranose)-3-dimethylphosphonoacetyl-5,10-dioxo-3,4,5-10-tetrahydro-1H-naphtho-[2,3-c]-pyran], the IC50 ([2]; Homo sapiens) is reported as 16.5 µM, the VLB/OV3 [2] is reported as 5.94 and the IC50 (Lox (Melanoma); Homo sapiens) is reported as 1720 nM. It also gave an IC50 ([3]; Homo sapiens, HT-29) of 3660 nM and an IC50 ([4]; Homo sapiens, SK-OV-3) of 2780 nM.
`COP(=O)(CC(=O)[C@H]1CC2=C(C(=O)c3ccccc3C2=O)[C@H](O[C@H]2C[C@H](NC(=O)C(F)(F)F)[C@H](O)[C@H](C)O2)O1)OC` [BCH1690, (1'S,1S,3R)-1-(2',3',6'-trideoxy-3'-trifluoroacetamido-L-lyxohexopyranose)-3-dimethylphosphonoacetyl-5,10-dioxo-3,4,5-10-tetrahydro-1H-naphtho-[2,3-c]-pyran] showed an IC50 ([2]; Homo sapiens) of 13.7 µM, a VLB/OV3 [2] of 7.70 and an IC50 (Lox (Melanoma); Homo sapiens) of 1620 nM. For the same compound, the IC50 ([3]; Homo sapiens, HT-29) was 3010 nM and the IC50 ([4]; Homo sapiens, SK-OV-3) was 1780 nM.
With `CC(=O)O[C@@H]1[C@H](C)O[C@@H](O[C@@H]2O[C@@H](C(C)=O)CC3=C2C(=O)c2ccccc2C3=O)C(Br)[C@@H]1OC(C)=O` (stereo partly drawn) [BCH2099, (1'S,1S,3R)-methyl-(1-[2',6'-dideoxy-3',4'-diacetoxy-2'-bromo-L-lyxohexopyranose]-5,10-dioxo-3,4,5,10-tetrahydronaphtho-[2,3-c]-pyran-3-yl) ketone] the VLB/OV3 [2] was 0.77-2.
`CC(=O)O[C@@H]1[C@H](C)O[C@@H](O[C@H]2O[C@H](C(C)=O)CC3=C2C(=O)c2ccccc2C3=O)C(Br)[C@@H]1OC(C)=O` (stereo partly drawn) [BCH2100, (1'S,1R,3S)-methyl-(1-[2',6'-dideoxy-3',4'-diacetoxy-2'-bromo-L-lyxohexopyranose]-5,10-dioxo-3,4,5,10-tetrahydronaphtho-[2,3-c]-pyran-3-yl) ketone] gave a VLB/OV3 [2] of 3.04.
In the case of `CC(C)C(=O)[C@@H]1CC2=C(C(=O)c3ccccc3C2=O)[C@@H](O[C@H]2C[C@H](NC(=O)C(F)(F)F)[C@H](O)[C@H](C)O2)O1` [BCH2112, (1'S,1R,3S)-isopropyl-[1-(2',3',6'-trideoxy-3'-trifluoroacetamido-L-lyxohexopyranose)-5,10-dioxo-3,4,5,10-tetrahydro-1H-naphtho-[2,3-c]-pyranyl]-ketone], the VLB/OV3 [2] is reported as 15.96-17.
Work on `COC1OC(C(C)=O)=CC2=C1C(=O)c1ccccc1C2=O` (stereo not shown) [BCH2129, 3-Aceto-5,10-dioxo-1-methoxy-5,10-dihydro-1H-naphtho-(2,3-c)-pyran] yielded a VLB/OV3 [2] of 2.95.
For `CO[C@H]1C[C@H](O[C@H]2O[C@H](C(C)=O)C[C@]34O[C@]23C(=O)c2ccccc2C4=O)O[C@@H](C)[C@H]1OS(C)(=O)=O` [BCH2141, (1'-S,1-R,3-S,4a-S,10a-S)-methyl-(1-[2',3',4',6'-tetradeoxy-3'-methoxy-4'-O-methanesulfonyl-L-lyxohexopyranose)-4a,10a-epoxy-5,10-dioxo-3,4,5,10-tetrahydronaphtho-[2,3-c]pyran-3-yl) ketone], the VLB/OV3 [2] was 1.23.
`CC(=O)C1CC2=C(C(=O)c3ccccc3C2=O)C(OC2CC(NC(=O)C(F)(F)F)C(O)C(C)O2)O1` (stereo not shown) [BCH2145] gave an IC50 [2, 5] of 13.4 µM, a VLB/OV3 [2] of 1.64 and an IC50 (Lox (Melanoma); read-out: IC50) of 830 nM. For the same compound, the IC50 ([3]; HT29, read-out: IC50) was 2480 nM and the IC50 ([4]; SKOV3, read-out: IC50) was 8190 nM.
In the case of `COC(=O)C1=CC2=C(C(=O)c3ccccc3C2=O)C(OC)O1` (stereo not shown) [BCH2160, 1-methoxy-3-methoxy carbonyl-5,10-dioxo-5,10-dihydro-1H-naphtho-[2,3-c]-pyran], the VLB/OV3 [2] is reported as 1.85.
With `COC1OC(C(=O)NCCCN2CCCC2=O)=CC2=C1C(=O)c1ccccc1C2=O` (stereo not shown) [BCH2166, 1-methoxy-3-(3-N-pyrrolidinomylpropylaminocarbonyl)-5,10-dioxo-5,10-dihydro-1H-naphtho-[2,3-c]-pyran] the IC50 ([1]; Homo sapiens, read-out: IC50) was 237 nM, the IC50 ([2]; Homo sapiens, SKVLB, multidrug resistant, read-out: IC50) was 0.495 to 1.2 µM and the VLB/OV3 [2] was 2.73. The IC50 [3, 6] was 443 to 1200 nM and the IC50 ([4]; Homo sapiens, SK-OV-3, SKOV3, read-out: IC50) was 140 to 181 nM.
`COC1OC(C(=O)NCCN2CCOCC2)=CC2=C1C(=O)c1ccccc1C2=O` (stereo not shown) [BCH2170, 1-methoxy-3-[2-(N-morpholino)ethylaminocarbonyl]-5,10-dioxo-5,10-dihydro-1H-naphtho-[2,3-c]-pyran] showed a VLB/OV3 [2] of 1.52.
Work on `COC1OC(C(=O)NCCN2CCOCC2)=CC2=C1C(=O)c1ccccc1C2=O` (stereo not shown) [BCH2171, 1-methoxy-3-[2-(N-morpholine)ethylaminocarbonyl]-5,10-dioxo-5,10-dihydro-1H-naphtho-[2,3-c]-pyran] yielded an IC50 ([1]; Homo sapiens, read-out: IC50) of 398 nM, a VLB/OV3 [2] of 2.16 and an IC50 ([3]; HT29, read-out: IC50) of 219 nM.
With `COC(=O)C1=CC2=C(CO1)C(=O)c1ccccc1C2=O` [BCH2830, 3-methoxy carbonyl-5,10-dioxo-5,10-dihydro-1H-naphtho-[2,3-c]-pyran] the IC50 ([2]; Homo sapiens) was 10.8 µM and the VLB/OV3 [2] was 1.52.
With `COC1OC(C(=O)NCCN2CCCC2)=CC2=C1C(=O)c1ccccc1C2=O.Cl` (stereo not shown) [BCH2839, 1-methoxy-3-[2-(N-pyrrolidinyl)ethylaminocarbonyl]-5,10-dioxo-5,10-dihydro-1H-naphtho-[2,3-c]-pyran hydrochloride salt] the VLB/OV3 [2] was 6.14-9.98.
Work on “(1'S,1S,3R)-methyl-(6 and 9-hydroxy-1-[2',3',6'-trideoxy-3'-trifluoroacetamido-4'-hydroxy-L-lyxohexopyranose]-5,10-dioxo-3,4,5,10-tetrahydronaphtho-[2,3-c]-pyran-3-yl-ketone [BCH2078]” yielded an IC50 ([1]; read-out: IC50) of 507 nM, an IC50 [2, 5] of 2.24 µM and a VLB/OV3 [2] of 5.41. It also gave an IC50 ([3]; HT29, read-out: IC50) of 269 nM and an IC50 ([4]; SKOV3, read-out: IC50) of 414 nM.
